{"source": "patent US6642221B1", "about": "“Vanadium compounds as anti-proliferative agents” (Parker Hughes Institute, priority 2000, dated 2003)", "key": {"pharyngonasal cancer": {"test_system": "pharyngonasal cancer", "conditions": "single assay, Sakurai et al. 1995; cited from earlier work"}, "Zebrafish embryos [1]": {"test_system": "Zebrafish embryos", "assay": "Zebrafish embryo model system: embryos exposed to compound in medium, cell division observed", "assay_type": "in vivo, Zebrafish (Danio rerio)", "conditions": "for inhibition of mitosis in treated embryos: 10 μM to 4 mM in medium; for effect on embryo development: 120 minutes; for effect on embryo cell division: thirty minutes after treatment", "protocol": "Two-cell stage Zebrafish embryos were dechorionated with 1% trypsin-EDTA and treated with 1% DMSO at a temperature of 28.5° C. Zebrafish embryos were removed from their chorions by mild digestion in 1% Trypsin-EDTA (Sigma, St. Louis, Mo.) for 10 minutes at 28.5° C. (Standard temperature - ST), washed three times in “egg water” and twice in “embryonic medium” (EM) as described in Westerfield, M., The Zebrafish Book, Supra. The dechorionated two-cell stage cleaving eggs/embryos were transferred to the 24-well plastic cell culture plates (Costar, Cambridge, Mass.) filled with EM. Dechorionated embryos (10-12 per well) were exposed to VDC and VDacac at a constant ST for 0.5-24 hours. The final volume of the medium in each well was 500 μL. Both compounds were used at concentrations ranging from 10 μM to 4 mM. The compounds were dissolved in DMSO and then diluted serially with the incubation medium. The final concentration of DMSO in the wells was 1.2%. The sham-treated control embryos were incubated in EM in the presence of 1.2% DMSO.\n(§1) Observations of cell division and development of the Zebrafish embryos were carried out using a SMZ-10A stereo microscope, once every 30 minutes within the first 3 hours of incubation and at 6, 12 and 24 hours, as well. […] The stereo microscope was fitted with a specially designed transparent heating tray in order to keep embryos at ST during observations. Pictures of the embryos were taken with a H-III Photomicrographic System (Nikon) using Ektachrome 64X film (Kodak, Rochester, N.Y.)."}, "Zebrafish embryos [2]": {"test_system": "Zebrafish embryos", "assay": "Microinjection of Zebrafish embryos, cell division and development observed", "assay_type": "in vivo, Zebrafish (Danio rerio)", "excerpt": "VDC and VDacac were microinjected into Zebrafish embryos at room temperature, using a SMZ-10A stereo microscope (Nikon, Melville, N.Y.) and Transjector 5246 (Eppendorf, Westbury, N.Y.). Dechorionated Zebrafish embryos at the two-cell stage were transferred to a Petri dish filled with embryonic medium. The bottom of the Petri dish was covered with an agar layer, and the embryos were placed in grooves in agar, exactly as described in Westerfield, M., The Zebrafish Book, Supra. Microinjections were performed under visual control. At the 2-4 cell stage, approximately 2 nL of the compound dissolved in Hank's Balanced Salt Solution (HBSS) (Gibco, Rockville, Md.) with 10% DMSO was injected into the cytoplasm of one of the blastomeres through a constantly flowing micropipette with a splinted sharp tip of 2-3 μm diameter. Sham-treated control embryos were injected with 2 nL of HBSS containing 10% DMSO. After the treatment, the embryos were transferred to standard temperature, 28.5° C.\nas §1"}, "[3]": {"test_system": "germinal vesicle stage bovine oocytes", "conditions": "24 hours; for oocytes matured to metaphase of meiosis II (MII): control 93%", "protocol": "Immature oocytes were recovered from bovine ovaries after slaughter by aspiration of 5 mm follicles. Only oocytes having a homogenous cytoplasm and surrounded by at least three layers of cumulus cells were selected. These were washed through three rinses of Hepes buffered Tyrode's media (114 mM NaCl, 3.2 mM KCl, 2 mM CaCl22H2O, […] MgCl26H2O, 25 mM NaHCO3, 0.4 mM NaH2PO4, 10 mM Na lactate, 100 I.U./ml Penicillin)(TL-Stock) modified with 10 mM Hepes, 1 mg/ml BSA, 0.2 mM pyruvate, and 25 μg/ml gentamicin (TL-Hepes; (16). Oocytes were matured for 24 hours in 50 μl drops of TC199 modified with 10% fetal bovine serum, 5 μg/ml FSH-p, 25μg/ml gentamicin, 1 μg/ml estrogen at 39° C. in 5% CO2 under mineral oil (17). After the oocytes were placed in the drops, 25 or 50 μM VDC was added in DMSO. Equal amounts of DMSO were added to control drops. Bovine oocytes were processed for immunocytochemistry after 24 hours.\nGerminal vesicle stage bovine oocytes were matured in vitro in the presence of vehicle or VDC (25 μM or 50 μM). After 24 hours, these oocytes were fixed, labeled with anti-tubulin antibodies and the DNA dye TOTO−3. Oocytes were scored according to their stage in meoisis, microtubule organization and chromosome number."}, "[4]": {"test_system": "BT-20 breast cancer cells", "assay": "MTT cytotoxicity assay", "assay_type": "cell-based, human", "conditions": "BT20, 48 hours; read-out: IC50 (inhibition of cellular proliferation, MTT)", "protocol": "(§2) BT-20 and MDA-MB-231 breast cancer cells (HTB-19, HTB-26 ATCC, Rockville, Md.) and U373 glioblastoma cells (HTB-17 ATCC Rockville, Md.) were grown in MEM media modified with 10% Fetal Bovine serum and 1% Penicillin/Streptomycin (Life Technologies, Rockville Md.). Cells were seeded onto sterile 22 mm square coverslips in 6-well plates. Cells on coverslips were kept in an incubator for 24 hours prior to treatment. The following day, VDC or VDacac was added from a stock solution made in DMSO to yield final concentration ranging from 3.9 to 500 μM (final DMSO concentration=0.025%). Cells were returned to a 37° C. incubator for 24 hours.\n(§3) The cytotoxicity of VDC and VDacac against the human tumor cell lines discussed above was assayed using the MTT (3-[4,5-dimethylthiazol-2-yl]-2,5-diphenyl tetrazolium bromide) assay (Boehringer Mannheim Corp., Indianapolis, Ind.). Briefly, exponentially growing tumor cells were seeded into a 96-well plate at a density of 2.5×10^4 cells/well and incubated for 36 hr at 37° C. prior to drug exposure. On the day of treatment, culture medium was carefully aspirated from the wells and replaced with fresh medium containing VDC or VDacac at concentrations ranging from 3.9 to 500 μM. Triplicate wells were used for each treatment. The cells were incubated with the vanadium compounds for 48 hours at 37° C. in a humidified 5% CO2 atmosphere. To each well, 10 μl of MTT (0.5 mg/ml final concentration) was added and the plates were incubated at 37° C. for 4 hours to allow MTT to form formazan crystals by reacting with metabolically active cells. The formazan crystals were solubilized overnight at 37° C. in a solution containing 10% SDS in 0.01 M HCl. The absorbence of each well was measured in a microplate reader (Labsystems, Helsinki, Finland) at 540 nm and a reference wavelength of 690 nm. To translate the OD540 values into the number of live cells in each well, the OD540 values were compared to those on standard OD540—versus—cell number curves generated for each cell line. The percent survival was calculated using the formula: % survival=Live cell number[test]/Live cell number [control]×100. The IC50 values were calculated by non-linear regression analysis using Graphpad Prism software version 2.0 (Graphpad Software, Inc., San Diego, Calif.)."}, "[5]": {"test_system": "MDA-MB-231 breast cancer cells", "assay": "MTT cytotoxicity assay", "assay_type": "cell-based, human", "conditions": "MDA-MB-231, 48 hours; read-out: IC50 (inhibition of cellular proliferation, MTT)", "protocol": "as §2, §3"}, "U373 glioblastoma cells": {"test_system": "U373 glioblastoma cells", "assay": "MTT cytotoxicity assay", "assay_type": "cell-based, human", "conditions": "U373, 48 hours; read-out: IC50 (inhibition of cellular proliferation, MTT)", "protocol": "as §2, §3"}, "[6]": {"test_system": "BT-20 breast cancer cells", "assay": "Immunocytochemistry and confocal microscopic analysis of mitotic spindles", "assay_type": "cell-based, human", "conditions": "BT-20 cells; for mitotic spindle morphology (α-tubulin, DNA): confocal microscopy", "protocol": "as §2\nAt the appropriate time point, coverslips containing BT-20 cells were fixed in −20° C. methanol for 15 minutes followed by 15 minutes incubation in phosphate buffered saline +0.1% Triton X-100 (PBS+Tx). Coverslips were next incubated with a primary antibody recognizing α-tubulin (Sigma, St.Louis Mo.) γ-tubulin (BAbCo, Berkeley Calif.), or NuMA (Calbiochem, SanDiego Calif.) for 40 minutes in a humidified chamber at 37° C. Coverslips were washed for 15 minutes in PBS-Tx followed by a 40 min incubation with a fluorescently labeled secondary antibody (Jackson Immunoresearch, West Grove Pa.). For double labeling the respective primary and secondary antibodies were combined. The coverslips were again rinsed in PBS-Tx and incubated with 5 μM Toto−3 (Molecular Probes, Eugene Oreg.) for 20 minutes to label the DNA. Coverslips were immediately inverted onto slides in Vectashield (Vector Labs, Burlingame, N.H.) to prevent photobleaching, sealed with nail polish and stored at 4° C. Bovine oocytes were processed for immunocytochemistry as described previously. Navara et al., Dev. Biol., 162: 29-40, 1994.\nSlides were examined using a Bio-Rad MRC-1024 Laser Scanning Confocal Microscope mounted on a Nikon Eclipse E800 upright microscope with high numerical aperture objectives. Digital data was processed using Lasersharp (Bio-Rad, Hercules Calif.) and Photoshop (Adobe Systems Mountain View Calif.) software and printed on a Pictrography printer (Fuji Photo Elmsford, N.Y.)."}, "[7]": {"test_system": "dynein ATPase activity found in sperm axonemes", "conditions": "100 μM", "procedure": "The effect of VDC on ATPase and GTPase activity was determined by isolating sperm axonemes after treatment of human sperm with 100 μM VDC. Sperm were pelleted by centrifugation 1900×g for 15 min, washed twice in cold PBS, resuspended in extraction buffer (1.0% Triton X-100, 0.1 M NaCl, 4 mM MgSO4, 1 mM CaCL2, 0.1 mM EDTA, 0.1 mM ATP, 7 mM 2-mercaptoethanol, and 5 mM imidazole buffer pH 7.0) and disrupted using a Dounce homogenizer. This homogenized suspension was centrifuged at 1500×g for 5 min to remove sperm heads and the resulting supernatant was recentrifuged at 12,000×g to recover the broken axonemes.\nThe axoneme pellet was resuspended in extraction buffer to remove residual membrane material, centrifuged at 1500×g for 5 min to remove residual sperm heads followed by centrifugation at 12,000×g to recover axonemes. The recovered axonemes were washed three times in extraction buffer lacking Triton X-100 and resuspended in solubilization buffer (0.6 M NaCl, 4 mM MgSO4, 1 mM CaCl2, 0.1 mM EDTA, 1 mM DTT, 7 mM 2-mercaptoetanol, 5 mM imidazole buffer pH 7.0) to solubilize the readily extractable motor protein dynein. The suspension was then centrifuged at 12,000×g. […] ATPase activity was measured using the EnzChek Phophate assay kit (Molecular Probes, Eugene Oreg.) according to manufacturers instructions."}, "tumor cell": {"test_system": "tumor cell", "conditions": "Kopf-Maier et al. 1983; cited from earlier work"}}, "note": "Where two headings read alike, the source gives them in different places.", "data": [{"molecule": "O.O.O=S(=O)([O-])[O-].[O]=[V+2].c1cnc2c(c1)ccc1cccnc12", "note": "[[VO(Phen)(H2O)2](SO4), (diaqua)(1,10-phenanthroline)oxovanadium (IV) sulfate]", "values": [{"measurement": "activity against pharyngonasal cancer", "setting": "pharyngonasal cancer", "result": "active agent against pharyngonasal cancer"}]}, {"molecule": "Vanadocene dichloride [VDC]", "values": [{"measurement": "inhibition of mitosis in treated embryos", "setting": "Zebrafish embryos [1]", "result": "inhibited mitosis in a concentration-dependent fashion"}, {"measurement": "effect on embryo development", "setting": "Zebrafish embryos [1]; 0.76 mM", "result": "developed abnormal blastulae"}, {"measurement": "effect on embryo cell division", "setting": "Zebrafish embryos [1]; 1.9 mM", "result": "cell division defects followed by fusion of the embryonic cells"}, {"measurement": "effect on embryonic development after microinjection", "setting": "Zebrafish embryos [2]; 0.64 pmol microinjected (lowest)", "result": "formation of a blastocoel-like cavity in the blastoderm and prevented gastrulation"}, {"measurement": "effect on embryonic development after microinjection", "setting": "Zebrafish embryos [2]; 32 pmol microinjected (higher)", "result": "cell division slow-down and total disarray of cell localization and development arrest"}, {"measurement": "effect on embryonic development after microinjection", "setting": "Zebrafish embryos [2]; 58 pmol microinjected (highest)", "result": "total cell fusion within 30 minutes of microinjection"}, {"measurement": "oocytes matured to metaphase of meiosis II (MII)", "setting": "[3]; 25 μM", "result": 16.2, "unit": "%"}, {"measurement": "oocytes matured to metaphase of meiosis II (MII)", "setting": "[3]; 50 μM", "result": 10.0, "unit": "%"}, {"measurement": "oocytes with abnormal meiotic spindles", "setting": "[3]; 25 or 50 μM, control 4%", "result": "≥ 50", "unit": "%"}, {"measurement": "IC50", "setting": "[4]", "result": 14.9, "unit": "µM"}, {"measurement": "IC50", "setting": "[5]", "result": 11, "unit": "µM"}, {"measurement": "IC50", "setting": "U373 glioblastoma cells", "result": 18.6, "unit": "µM"}, {"measurement": "NuMA localization", "setting": "[6]", "result": "only localized to one side of the mitotic spindle"}, {"measurement": "γ-tubulin spindle pole labeling", "setting": "[6]", "result": "two foci of γ-tubulin on the same side of the chromosomes"}, {"measurement": "mitotic spindle morphology (α-tubulin, DNA)", "setting": "[6]", "result": "aberrant monopolar mitotic structures"}, {"measurement": "inhibition of ATPase activity found in axonemes", "setting": "[7]; four separate experiments", "result": 12.2, "unit": "%"}, {"measurement": "ATPase activity found in axonemes", "setting": "[7]; control 0.08±0.01", "result": "0.07±0.02"}, {"measurement": "tumor cell growth", "setting": "tumor cell", "result": "arrest tumor cell growth"}]}, {"molecule": "CC(=O)C=C(C)[O-].O=S(=O)([O-])C(F)(F)F.[V+4].c1cc[cH-]c1.c1cc[cH-]c1", "note": "[VDacac, Vanadocene acetylacetonato monotriflate]", "values": [{"measurement": "inhibition of mitosis in treated embryos", "setting": "Zebrafish embryos [1]", "result": "inhibited mitosis in a concentration-dependent fashion"}, {"measurement": "effect on embryo development", "setting": "Zebrafish embryos [1]; 0.4 mM", "result": "developed similar defects"}, {"measurement": "effect on embryo cell division", "setting": "Zebrafish embryos [1]; 0.6 mM", "result": "cell division defects followed by fusion of the embryonic cells"}, {"measurement": "effect on embryonic development after microinjection", "setting": "Zebrafish embryos [2]; 1 pmoL microinjected (lower)", "result": "formation of a blastocoel-like cavity in the blastoderm and prevented gastrulation"}, {"measurement": "effect on embryonic development after microinjection", "setting": "Zebrafish embryos [2]; 49 pmoL microinjected (higher)", "result": "deterioration of cell localization and development failure"}, {"measurement": "IC50", "setting": "[4]", "result": 26.9, "unit": "µM"}, {"measurement": "IC50", "setting": "[5]", "result": 9.1, "unit": "µM"}, {"measurement": "IC50", "setting": "U373 glioblastoma cells", "result": 35.5, "unit": "µM"}, {"measurement": "mitotic spindle morphology (α-tubulin, DNA)", "setting": "[6]", "result": "aberrant monopolar mitotic structures"}]}]}
